# Patent US20210102239A1, “METHOD FOR DETERMINING BACTERIAL NUMBER IN SPECIMEN” (MITSUI CHEMICALS, INC., priority 2017, published 2021)
# Assays:
# Escherichia coli [1] = assay: drug sensitivity test of the pathogenic bacterium from blood culture; type: cell-based; conditions: isolate from blood specimen sampled before antibiotic treatment
# Experimental: (§1) According to Step 1 to Step 4 of Example 1, a pathogenic bacterium rapid quantification test using sepsis patient's specimens (EDTA blood collection tube, 2 mL) was carried out. […] Blood was sampled before treatment with an antibiotic (pretreatment), and 24 hours (after 24 hrs.) and 72 hours (after 72 hrs.) after administration of the antibiotic. At the three points, a pathogenic bacterium rapid quantification test was carried out together with measurement of body temperature, white blood cell count, CRP, presepsin and IL-6. Furthermore, a blood specimen sampled before the antibiotic treatment was subjected to a blood culture method to identify a pathogenic bacterium and subjected to a drug sensitivity test. General information about individual cases is as follows.
# According to Step 1 to Step 5 of Example 1, a pathogenic bacterium rapid identification/quantification test using sepsis patient's specimens (EDTA blood collection tube, 2 mL) was carried out. […] Blood was sampled before treatment with an antibiotic (pretreatment), and 24 hours (after 24 hrs.) and 72 hours (after 72 hrs.) after administration of the antibiotic. At the three points, a pathogenic bacterium rapid identification/quantification test was carried out together with measurement of body temperature, white blood cell count, CRP, presepsin and IL-6. […]
# Escherichia coli [2] = assay: Case 1: pathogen count (nested PCR) and biomarkers in blood before/after antibiotic treatment; type: in vivo, human (sepsis patient); conditions: for BT (body temperature): pretreatment 37.0; for IL-6: pretreatment 122; for CRP: pretreatment 185.9; for WBC: pretreatment 285.6; for Presepsin: pretreatment 1298; for Pathogen (Ave): pretreatment 1314
# Experimental: (§2) First, bacterial cells were collected from a blood specimen by centrifuging the whole blood at a low rate of 100×g for 5 minutes to separate blood cells, centrifuging the resultant supernatant (containing buffy coat) at a high rate of 20,000×g for 10 minutes to obtain a pellet.
# (§3) Using DNA of a pathogenic bacterium taken from the blood specimen according to the method of Step 1 as a template, nested PCR (1st PCR: 30 cycle→100 double dilution→2nd PCR: 30 to 35 cycles) is carried out. The bacterial cells in patient specimens vary in a wide range from very small to large number. Since it is difficult to accurately determine the bacterial number in a single cycle of PCR, nested PCR methods are used in combination.
# (§4) Subsequently, using pathogenic bacterium DNA of Step 1 as a template, nested PCR was carried out together with a quantification control in the conditions described in Step 2. In the 1st PCR and 2nd PCR for quantification, the following bacterial universal primer (primer for detecting almost all bacteria) was used. The target region of the bacterial universal primer is a bacterial conserved region (base sequence region common in almost all bacteria) of a 16S ribosomal RNA gene. A predetermined bacterium is quantified by a bacterial species-specific primer; however, a pathogenic bacterium is not identified in the early stage of sepsis. Because of this, a bacterial species-specific primer cannot be used. Accordingly, unless a bacterial universal primer is used, an unidentified bacterium cannot be detected.
# (§5) As mentioned above, E. coli DNA samples of three different concentrations and of a known bacterial number were used as quantification controls. Based on the data of three quantification controls different in concentration, a calibration curve was prepared. Based on bacterial DNA extracted from a patient specimen, the number of pathogenic bacterial cells was determined. Since the number of bacterial cells was obtained as an E. coli cell-number equivalent used as a quantification control, the number of bacterial cells in a specimen can be more easily, rapidly and accurately determined.
# as §1
# Case 1: • person, sepsis associated with urinary tract infection • blood culture/urine culture: Escherichia coli • antibiotic substance: meropenem (sensitive)
# Escherichia coli [3] = assay: Case 4: pathogen identification/quantification and biomarkers in blood before/after antibiotic treatment; type: in vivo, human (sepsis patient); conditions: for BT (body temperature): pretreatment 37.0; for IL-6: pretreatment 122; for CRP: pretreatment 185.9; for WBC: pretreatment 285.6; for Presepsin: pretreatment 1298; for Pathogen (Ave): pretreatment 1314
# Experimental: as §2, §3, §4, §5
# (§6) For the reason, it is necessary to make a correction based on the operon copy number per bacterium species in order to more accurately determine bacterial number. Since identification and qualification of a pathogenic bacterium are carried out concurrently in Step 3 and Step 4, the number of pathogenic bacterial cells can be corrected based on 16S ribosomal RNA operon copy number of the bacterium identified to computationally obtain the correct number of bacterial cells.
# as §1, with “Step 5” for “Step 4”, “rapid identification/quantification” for “rapid quantification”
# Case 4: • person, sepsis associated with urinary tract infection • Tm mapping method: Escherichia coli (Dist. value=0.29) • blood culture/urine culture: Escherichia coli • antibiotics substance: meropenem (sensitive)
# Enterobacter aerogenes [4] = assay: drug sensitivity test of the pathogenic bacterium from blood culture; type: cell-based; conditions: Case 7, isolate from blood specimen sampled before antibiotic treatment
# Experimental: as §1, with “Step 5” for “Step 4”, “rapid identification/quantification” for “rapid quantification”
# Escherichia coli [5] = assay: Case 3: pathogen count (nested PCR) and biomarkers in blood before/after antibiotic treatment; type: in vivo, human (sepsis patient); conditions: for CRP: pretreatment 1.1; for BT (body temperature): pretreatment 39.6; for WBC: pretreatment 168.3; for Presepsin: pretreatment 343; for IL-6: pretreatment 678; for Pathogen (Ave): pretreatment 3600
# Experimental: as §2, §3, §4, §5, §1
# Case 3: • person, sepsis associated with urinary tract infection • blood culture/urine culture: Escherichia coli • antibiotics substance: tazobactam/piperacillin (sensitive)
# Escherichia coli [6] = assay: Case 5: pathogen identification/quantification and biomarkers in blood before/after antibiotic treatment; type: in vivo, human (sepsis patient); conditions: for CRP: pretreatment 1.1; for BT (body temperature): pretreatment 39.6; for WBC: pretreatment 168.3; for Presepsin: pretreatment 343; for IL-6: pretreatment 678; for Pathogen (Ave): pretreatment 3600
# Experimental: as §2, §3, §4
# (§7) As mentioned above, E. coli DNA samples of three different concentrations and of a known bacterial number were used as quantification controls. Based on the data of three quantification controls different in concentration, a calibration curve was prepared. Based on bacterial DNA extracted from a patient specimen, the number of pathogenic bacterial cells was determined.
# as §6
# as §1, with “Step 5” for “Step 4”, “rapid identification/quantification” for “rapid quantification”
# [7] = system: Streptococcus dysgalactiae; assay: Case 6: pathogen identification/quantification and biomarkers in blood before/after antibiotic treatment; type: in vivo, human (sepsis patient); conditions: for BT (body temperature): pretreatment 39.7; for WBC: pretreatment 89.5; for IL-6: pretreatment 115; for CRP: pretreatment 136.1; for Presepsin: pretreatment 1373; for Pathogen (Ave): pretreatment 2651
# Experimental: as §2, §3, §4, §7, §6
# as §1, with “Step 5” for “Step 4”, “rapid identification/quantification” for “rapid quantification”
# Enterobacter aerogenes [8] = assay: Case 7: pathogen identification/quantification and biomarkers in blood before/after antibiotic treatment; type: in vivo, human (sepsis patient); conditions: for BT (body temperature): pretreatment 38.8; for WBC: pretreatment 59.4; for CRP: pretreatment 72.3; for Presepsin: pretreatment 1322; for Pathogen (Ave): pretreatment 41083; for IL-6: pretreatment 238000
# Experimental: as §2, §3, §4, §7, §6
# as §1, with “Step 5” for “Step 4”, “rapid identification/quantification” for “rapid quantification”
compound,measurement,setting,value
C[C@@H](O)[C@H]1C(=O)N2C(C(=O)O)=C(S[C@@H]3CN[C@H](C(=O)N(C)C)C3)[C@H](C)[C@H]12 [meropenem],drug sensitivity,Escherichia coli [1],sensitive
same,BT (body temperature),"Escherichia coli [2]; Case 1, 24 h after antibiotic",37.9 °C
same,IL-6,"Escherichia coli [2]; Case 1, 24 h after antibiotic",85.8 pg/mL
same,CRP,"Escherichia coli [2]; Case 1, 24 h after antibiotic",223.1 mg/L
same,WBC,"Escherichia coli [2]; Case 1, 24 h after antibiotic",301.4 × 100/μL
same,Presepsin,"Escherichia coli [2]; Case 1, 24 h after antibiotic",1729 ng/mL
same,Pathogen (Ave),"Escherichia coli [2]; Case 1, 24 h after antibiotic",248 cells/ml
same,BT (body temperature),"Escherichia coli [2]; Case 1, 72 h after antibiotic",37.2 °C
same,IL-6,"Escherichia coli [2]; Case 1, 72 h after antibiotic",20.7 pg/mL
same,CRP,"Escherichia coli [2]; Case 1, 72 h after antibiotic",86.4 mg/L
same,WBC,"Escherichia coli [2]; Case 1, 72 h after antibiotic",98.7 × 100/μL
same,Presepsin,"Escherichia coli [2]; Case 1, 72 h after antibiotic",1138 ng/mL
same,Pathogen (Ave),"Escherichia coli [2]; Case 1, 72 h after antibiotic",0 cells/ml
same,BT (body temperature),"Escherichia coli [3]; Case 4, 24 h after antibiotic",37.9 °C
same,IL-6,"Escherichia coli [3]; Case 4, 24 h after antibiotic",85.8 pg/mL
same,CRP,"Escherichia coli [3]; Case 4, 24 h after antibiotic",223.1 mg/L
same,WBC,"Escherichia coli [3]; Case 4, 24 h after antibiotic",301.4 × 100/μL
same,Presepsin,"Escherichia coli [3]; Case 4, 24 h after antibiotic",1729 ng/mL
same,Pathogen (Ave),"Escherichia coli [3]; Case 4, 24 h after antibiotic",248 cells/ml
same,BT (body temperature),"Escherichia coli [3]; Case 4, 72 h after antibiotic",37.2 °C
same,IL-6,"Escherichia coli [3]; Case 4, 72 h after antibiotic",20.7 pg/mL
same,CRP,"Escherichia coli [3]; Case 4, 72 h after antibiotic",86.4 mg/L
same,WBC,"Escherichia coli [3]; Case 4, 72 h after antibiotic",98.7 × 100/μL
same,Presepsin,"Escherichia coli [3]; Case 4, 72 h after antibiotic",1138 ng/mL
same,Pathogen (Ave),"Escherichia coli [3]; Case 4, 72 h after antibiotic",0 cells/ml
tazobactam/piperacillin,drug sensitivity,Escherichia coli [1],sensitive
same,drug sensitivity,Enterobacter aerogenes [4],sensitive
same,CRP,"Escherichia coli [5]; Case 3, 24 h after antibiotic",9.3 mg/L
same,BT (body temperature),"Escherichia coli [5]; Case 3, 24 h after antibiotic",36.6 °C
same,WBC,"Escherichia coli [5]; Case 3, 24 h after antibiotic",61.4 × 100/μL
same,Presepsin,"Escherichia coli [5]; Case 3, 24 h after antibiotic",267 ng/mL
same,IL-6,"Escherichia coli [5]; Case 3, 24 h after antibiotic",5 pg/mL
same,Pathogen (Ave),"Escherichia coli [5]; Case 3, 24 h after antibiotic",2102 cells/ml
same,CRP,"Escherichia coli [5]; Case 3, 72 h after antibiotic",2.9 mg/L
same,BT (body temperature),"Escherichia coli [5]; Case 3, 72 h after antibiotic",37.2 °C
same,WBC,"Escherichia coli [5]; Case 3, 72 h after antibiotic",49.2 × 100/μL
same,Presepsin,"Escherichia coli [5]; Case 3, 72 h after antibiotic",501 ng/mL
same,IL-6,"Escherichia coli [5]; Case 3, 72 h after antibiotic",6.3 pg/mL
same,Pathogen (Ave),"Escherichia coli [5]; Case 3, 72 h after antibiotic",2 cells/ml
same,CRP,"Escherichia coli [6]; Case 5, 24 h after antibiotic",9.3 mg/L
same,BT (body temperature),"Escherichia coli [6]; Case 5, 24 h after antibiotic",36.6 °C
same,WBC,"Escherichia coli [6]; Case 5, 24 h after antibiotic",61.4 × 100/μL
same,Presepsin,"Escherichia coli [6]; Case 5, 24 h after antibiotic",267 ng/mL
same,IL-6,"Escherichia coli [6]; Case 5, 24 h after antibiotic",5 pg/mL
same,Pathogen (Ave),"Escherichia coli [6]; Case 5, 24 h after antibiotic",2102 cells/ml
same,CRP,"Escherichia coli [6]; Case 5, 72 h after antibiotic",2.9 mg/L
same,BT (body temperature),"Escherichia coli [6]; Case 5, 72 h after antibiotic",37.2 °C
same,WBC,"Escherichia coli [6]; Case 5, 72 h after antibiotic",49.2 × 100/μL
same,Presepsin,"Escherichia coli [6]; Case 5, 72 h after antibiotic",501 ng/mL
same,IL-6,"Escherichia coli [6]; Case 5, 72 h after antibiotic",6.3 pg/mL
same,Pathogen (Ave),"Escherichia coli [6]; Case 5, 72 h after antibiotic",2 cells/ml
same,BT (body temperature),"[7]; Case 6, 24 h after antibiotic",37.0 °C
same,WBC,"[7]; Case 6, 24 h after antibiotic",77.3 × 100/μL
same,IL-6,"[7]; Case 6, 24 h after antibiotic",85.3 pg/mL
same,CRP,"[7]; Case 6, 24 h after antibiotic",139.8 mg/L
same,Presepsin,"[7]; Case 6, 24 h after antibiotic",854 ng/mL
same,Pathogen (Ave),"[7]; Case 6, 24 h after antibiotic",308 cells/ml
same,BT (body temperature),"[7]; Case 6, 72 h after antibiotic",37.2 °C
same,WBC,"[7]; Case 6, 72 h after antibiotic",54.1 × 100/μL
same,IL-6,"[7]; Case 6, 72 h after antibiotic",59.4 pg/mL
same,CRP,"[7]; Case 6, 72 h after antibiotic",43.2 mg/L
same,Presepsin,"[7]; Case 6, 72 h after antibiotic",708 ng/mL
same,Pathogen (Ave),"[7]; Case 6, 72 h after antibiotic",20 cells/ml
same,BT (body temperature),"Enterobacter aerogenes [8]; Case 7, 24 h after antibiotic",38.4 °C
same,WBC,"Enterobacter aerogenes [8]; Case 7, 24 h after antibiotic",258.5 × 100/μL
same,CRP,"Enterobacter aerogenes [8]; Case 7, 24 h after antibiotic",107 mg/L
same,Presepsin,"Enterobacter aerogenes [8]; Case 7, 24 h after antibiotic",1516 ng/mL
same,Pathogen (Ave),"Enterobacter aerogenes [8]; Case 7, 24 h after antibiotic",19156 cells/ml
same,IL-6,"Enterobacter aerogenes [8]; Case 7, 24 h after antibiotic",41700 pg/mL
same,BT (body temperature),"Enterobacter aerogenes [8]; Case 7, 72 h after antibiotic",36.4 °C
same,WBC,"Enterobacter aerogenes [8]; Case 7, 72 h after antibiotic",198.2 × 100/μL
same,CRP,"Enterobacter aerogenes [8]; Case 7, 72 h after antibiotic",241.4 mg/L
same,Presepsin,"Enterobacter aerogenes [8]; Case 7, 72 h after antibiotic",2473 ng/mL
same,Pathogen (Ave),"Enterobacter aerogenes [8]; Case 7, 72 h after antibiotic",59 cells/ml
same,IL-6,"Enterobacter aerogenes [8]; Case 7, 72 h after antibiotic",176 pg/mL
